Assay results reported in patent US12351574B2, “Selective ligands for modulation of GIRK channels” (Northeastern University, priority 2018, dated 2025).

Target: T1, GIRK1-S65A with GIRK2 (UniProt P48542+P48549, S65A)
T1 construct: expressed in transfected cells; host or cells: HEK293 cells
T1 sequence (P48549 1-501 S65A): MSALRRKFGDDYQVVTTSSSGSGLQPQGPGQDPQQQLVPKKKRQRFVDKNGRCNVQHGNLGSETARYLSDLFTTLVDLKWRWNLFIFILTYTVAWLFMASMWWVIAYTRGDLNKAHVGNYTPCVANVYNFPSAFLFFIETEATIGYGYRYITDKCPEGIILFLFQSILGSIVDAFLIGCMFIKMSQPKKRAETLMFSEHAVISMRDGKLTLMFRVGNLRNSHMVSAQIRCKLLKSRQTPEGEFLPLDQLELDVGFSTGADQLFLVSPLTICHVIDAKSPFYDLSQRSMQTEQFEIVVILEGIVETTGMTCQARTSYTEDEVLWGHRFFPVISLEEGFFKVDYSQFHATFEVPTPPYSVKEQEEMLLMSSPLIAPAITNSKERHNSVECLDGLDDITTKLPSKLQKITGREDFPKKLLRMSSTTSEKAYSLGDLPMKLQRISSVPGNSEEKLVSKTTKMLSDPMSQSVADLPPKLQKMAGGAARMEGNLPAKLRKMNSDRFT
T1 sequence (P48542 1-425): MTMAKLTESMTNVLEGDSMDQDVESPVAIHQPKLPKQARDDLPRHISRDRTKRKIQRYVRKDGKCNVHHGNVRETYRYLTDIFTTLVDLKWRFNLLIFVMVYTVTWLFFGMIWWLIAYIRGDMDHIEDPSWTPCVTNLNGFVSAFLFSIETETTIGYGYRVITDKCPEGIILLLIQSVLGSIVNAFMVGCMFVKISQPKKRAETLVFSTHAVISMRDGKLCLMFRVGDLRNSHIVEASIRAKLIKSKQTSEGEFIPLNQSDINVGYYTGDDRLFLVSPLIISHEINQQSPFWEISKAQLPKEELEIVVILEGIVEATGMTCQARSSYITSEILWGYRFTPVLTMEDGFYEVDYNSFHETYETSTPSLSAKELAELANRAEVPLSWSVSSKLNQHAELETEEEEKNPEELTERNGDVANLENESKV
Assay: 5-ptaseOCRL current inhibition, GIRK1/2 channels containing GIRK1-S65A subunits
Format: cell-based, human GIRK1, mouse GIRK2
Conditions: 10 μM GAT1508
Description: To identify changes in specific channel residue interactions with PIP2 upon ligand binding, the inventors carried out Principal Component Analysis (PCA) in the presence and absence of ML297 and GAT1508. The PCA analysis implicated changes in the slide (or interfacial) helix interactions with PIP2 upon ligand binding. Polar interactions could be formed between GIRK2^FD(Y76) and GIRK4^FD(Y71) with the P(4,5) of PIP2 when ML297 was bound to the same subunit (FIG. 39 top, FIG. 40). In contrast, when GAT1508 was bound this interaction was retained by GIRK2^FD but not GIRK4^FD (FIG. 39 bottom, FIG. 40). The corresponding GIRK1(S65) residue (FIG. 41, highlighted with vertical rectangle) could be serving the same role in stabilizing the phosphoinositol headgroup for interactions with non-ligand binding subunits. As polar residues, both Ser and Tyr could form H-bond interactions with PIP2. […]
Patch-clamp recording: Whole-cell currents were recorded with an Axopatch 200B amplifier (Molecular Devices) controlled via a USB-interface (National Instruments) using WinWCP software (University of Strathclyde). […] The barium-sensitive component of the current, observed when cells were perfused with the high-K^+ buffer, was analyzed and was determined by perfusing 5 mM BaCl2 in the high-K^+ buffer at the end of each experiment. […]

- protection of current from 5-ptaseOCRL (in words): not protected
Structure (SMILES): Cc1cc(NC(=O)Nc2ccc(Br)s2)n(-c2ccccc2)n1 [GAT1508, 1-(5-bromothiophen-2-yl)-3-(3-methyl-1-phenyl-1H-pyrazol-5-yl)urea]
